Measured values reported in patent publication US20240132484A1, “BROAD SPECTRUM ANTIVIRAL COMPOUNDS TARGETING THE SKI COMPLEX” (priority 2020, published 2024).
“And” between values parts separate entries of the source, which are not always exact repeats. Equal entries are not always repeated. Where two headings read alike, the source gives them in different places.

Legend:
[1] = tested on: SARS2; type: cell-based, SARS-CoV-2; conditions: for Percentage Inhibition Average 1 μM / Screening data (Relative infection to DMSO controls) Average 1 μM: SARS2, 1 μM; for Screening data (Relative infection to DMSO controls) Average 1 μM / Screening data (Relative infection to DMSO controls) Average 5 μM / Screening data (Relative infection to DMSO controls) Average 10 μM / Screening data (Relative infection to DMSO controls) Average 25 μM / Screening data (Relative infection to DMSO controls) Average 50 μM / Average (relative infection to DMSO over the 5 tested concentrations): 100=DMSO control; for Percentage Inhibition Average 5 μM / Screening data (Relative infection to DMSO controls) Average 5 μM: SARS2, 5 μM; for Percentage Inhibition Average 10 μM / Screening data (Relative infection to DMSO controls) Average 10 μM: SARS2, 10 μM; for Percentage Inhibition Average 25 μM / Screening data (Relative infection to DMSO controls) Average 25 μM: SARS2, 25 μM; for Percentage Inhibition Average 50 μM / Screening data (Relative infection to DMSO controls) Average 50 μM: SARS2, 50 μM; for Average (relative infection to DMSO over the 5 tested concentrations): SARS2, average over 1 to 50 uM
[2] = tested on: cells (nuclei count); conditions: for Relative cell count to DMSO controls, Average 1 μM / Relative cell count to DMSO controls, Average 5 μM / Relative cell count to DMSO controls, Average 10 μM / Relative cell count to DMSO controls, Average 25 μM / Relative cell count to DMSO controls, Average 50 μM: toxicity data, 100=DMSO control; for Relative cell count to DMSO controls, Average (for correlation analysis): average value over the 5 tested concentrations (1 to 50 uM); for Toxicity Data, Average, Mean percentage relative to DMSO control: Average of Exp 1 (SMW491) and Exp 2 (SMW492); for Toxicity Data, Average, Mean: average of Exp 1-3 (SMW475, SMW477, SMW478)

CC1=C(C(=O)NCc2ccccc2)C(c2scc3c2OCCO3)NC(=O)N1 (stereo not drawn) [SILCS66]
Percentage Inhibition Average 1 μM [1]: −3.65%
Screening data (Relative infection to DMSO controls) Average 1 μM [1]: 103.65
Percentage Inhibition Average 5 μM [1]: 38.92%
Screening data (Relative infection to DMSO controls) Average 5 μM [1]: 61.08
Percentage Inhibition Average 10 μM [1]: −7.16%
Screening data (Relative infection to DMSO controls) Average 10 μM [1]: 107.16
Percentage Inhibition Average 25 μM [1]: −12.41%
Screening data (Relative infection to DMSO controls) Average 25 μM [1]: 112.41
Percentage Inhibition Average 50 μM [1]: −28.18%
Screening data (Relative infection to DMSO controls) Average 50 μM [1]: 128.18
Average (relative infection to DMSO over the 5 tested concentrations) [1]: 102.50
Relative cell count to DMSO controls, Average 1 μM [2]: 98.81
Relative cell count to DMSO controls, Average 5 μM [2]: 109.01
Relative cell count to DMSO controls, Average 10 μM [2]: 93.98
Relative cell count to DMSO controls, Average 25 μM [2]: 90.79
Relative cell count to DMSO controls, Average 50 μM [2]: 84.65
Relative cell count to DMSO controls, Average (for correlation analysis) [2]: 95.45

CCN(CC)CCN(Cc1cc(C)c(Br)s1)Cc1cc(C)c(Br)s1 [SILCS39]
Percentage Infection Relative to Appropriate DMSO Control with Avg Background Subtraction ([1]; Exp 1 (SMW491), 1 uM, Nunc Celigo plates, listed as SICLS39): 94.45% and 94.76%
Percentage Infection Relative to Appropriate DMSO Control with Avg Background Subtraction ([1]; Exp 1 (SMW491), 5 uM, Nunc Celigo plates, listed as SICLS39): 61.21% and 63.14%
Percentage Infection Relative to Appropriate DMSO Control with Avg Background Subtraction ([1]; Exp 1 (SMW491), 10 uM, Nunc Celigo plates, listed as SICLS39): 26.66% and 13.52%
Percentage Infection Relative to Appropriate DMSO Control with Avg Background Subtraction ([1]; Exp 1 (SMW491), 25 uM, Nunc Celigo plates, listed as SICLS39): 1.98% and 2.03%
Percentage Infection Relative to Appropriate DMSO Control with Avg Background Subtraction ([1]; Exp 2 (SMW492), 1 uM, Nunc Celigo plates, listed as SICLS39): 55.17% and 68.37%
Percentage Infection Relative to Appropriate DMSO Control with Avg Background Subtraction ([1]; Exp 2 (SMW492), 5 uM, Nunc Celigo plates, listed as SICLS39): 40.93% and 42.02%
Percentage Infection Relative to Appropriate DMSO Control with Avg Background Subtraction ([1]; Exp 2 (SMW492), 10 uM, Nunc Celigo plates, listed as SICLS39): 21.95% and 19.13%
Percentage Infection Relative to Appropriate DMSO Control with Avg Background Subtraction ([1]; Exp 2 (SMW492), 25 uM, Nunc Celigo plates, listed as SICLS39): 5.42% and 6.99%
Percentage Infection Relative to Appropriate DMSO Control with Avg Background Subtraction ([1]; Exp 2 (SMW492), 50 uM, Nunc Celigo plates, listed as SICLS39): 5.19% and 10.37%
Percentage Inhibition Average 1 μM [1]: 21.81%
Screening data (Relative infection to DMSO controls) Average 1 μM [1]: 78.19
Percentage Inhibition Average 5 μM [1]: 48.17%
Screening data (Relative infection to DMSO controls) Average 5 μM [1]: 51.83
Percentage Inhibition Average 10 μM [1]: 79.68%
Screening data (Relative infection to DMSO controls) Average 10 μM [1]: 20.32
Percentage Inhibition Average 25 μM [1]: 95.89%
Screening data (Relative infection to DMSO controls) Average 25 μM [1]: 4.11
Percentage Inhibition Average 50 μM [1]: 93.60%
Screening data (Relative infection to DMSO controls) Average 50 μM [1]: 6.40
Average (relative infection to DMSO over the 5 tested concentrations) [1]: 32.17
Infection Data, Average, Mean ([1]; average of Exp 1-2 (SMW491, SMW492), n 4, 1 uM): 78.19%
Infection Data, Average, Mean ([1]; average of Exp 1-2 (SMW491, SMW492), n 4, 5 uM): 51.83%
Infection Data, Average, Mean ([1]; average of Exp 1-2 (SMW491, SMW492), n 4, 10 uM): 20.32%
Infection Data, Average, Mean ([1]; average of Exp 1-2 (SMW491, SMW492), n 4, 25 uM): 4.11%
Infection Data, Average, Mean ([1]; average of Exp 1-2 (SMW491, SMW492), n 4, 50 uM): 6.40%
Relative cell count to DMSO controls, Average 1 μM [2]: 107.69
Relative cell count to DMSO controls, Average 5 μM [2]: 114.94
Relative cell count to DMSO controls, Average 10 μM [2]: 149.83
Relative cell count to DMSO controls, Average 25 μM [2]: 128.15
Relative cell count to DMSO controls, Average 50 μM [2]: 46.35
Toxicity Data, Average, Mean percentage relative to DMSO control ([2]; n=4, 1 uM): 107.69%
Toxicity Data, Average, Mean percentage relative to DMSO control ([2]; n=4, 5 uM): 114.94%
Toxicity Data, Average, Mean percentage relative to DMSO control ([2]; n=4, 10 uM): 149.83%
Toxicity Data, Average, Mean percentage relative to DMSO control ([2]; n=4, 25 uM): 128.15%
Toxicity Data, Average, Mean percentage relative to DMSO control ([2]; n=4, 50 uM): 46.35%
Relative cell count to DMSO controls, Average (for correlation analysis) [2]: 109.39

CCN(CC)CCN(Cc1ccccc1)Cc1ccccn1 [SILCS33]
Percentage Infection Relative to Appropriate DMSO Control with Avg Background Subtraction ([1]; Exp 1 (SMW475), 1 uM, Greiner Celigo plates): 53.62% and 101.44% and 86.72%
Percentage Infection Relative to Appropriate DMSO Control with Avg Background Subtraction ([1]; Exp 1 (SMW475), 5 uM, Greiner Celigo plates): 69.33% and 82.60% and 84.98%
Percentage Infection Relative to Appropriate DMSO Control with Avg Background Subtraction ([1]; Exp 1 (SMW475), 10 uM, Greiner Celigo plates): 79.81% and 90.19% and 84.97%
Percentage Infection Relative to Appropriate DMSO Control with Avg Background Subtraction ([1]; Exp 1 (SMW475), 50 uM, Greiner Celigo plates): 52.39% and 69.09% and 65.56%
Percentage Infection Relative to Appropriate DMSO Control with Avg Background Subtraction ([1]; Exp 2 (SMW477), 1 uM, Greiner Celigo plates): 120.88% and 113.91% and 111.55%
Percentage Infection Relative to Appropriate DMSO Control with Avg Background Subtraction ([1]; Exp 2 (SMW477), 5 uM, Greiner Celigo plates): 128.80% and 118.55% and 121.74%
Percentage Infection Relative to Appropriate DMSO Control with Avg Background Subtraction ([1]; Exp 2 (SMW477), 10 uM, Greiner Celigo plates): 114.36% and 136.38% and 130.63%
Percentage Infection Relative to Appropriate DMSO Control with Avg Background Subtraction ([1]; Exp 2 (SMW477), 25 uM, Greiner Celigo plates): 73.62% and 97.76% and 95.99%
Percentage Infection Relative to Appropriate DMSO Control with Avg Background Subtraction ([1]; Exp 2 (SMW477), 50 uM, Greiner Celigo plates): 31.41% and 36.50% and 41.52%
Percentage Infection Relative to Appropriate DMSO Control with Avg Background Subtraction ([1]; Exp 3 (SMW478), 5 uM, Greiner Celigo plates): 121.27% and 137.96% and 122.71%
Percentage Infection Relative to Appropriate DMSO Control with Avg Background Subtraction ([1]; Exp 3 (SMW478), 10 uM, Greiner Celigo plates): 159.81% and 126.46% and 162.16%
Percentage Infection Relative to Appropriate DMSO Control with Avg Background Subtraction ([1]; Exp 3 (SMW478), 25 uM, Greiner Celigo plates): 126.24% and 109.99% and 117.46%
Percentage Infection Relative to Appropriate DMSO Control with Avg Background Subtraction ([1]; Exp 3 (SMW478), 50 uM, Greiner Celigo plates): 71.82% and 89.49% and 84.99%
Percentage Inhibition Average 1 μM [1]: 28.78%
Screening data (Relative infection to DMSO controls) Average 1 μM [1]: 71.22
Percentage Inhibition Average 5 μM [1]: −9.77%
Screening data (Relative infection to DMSO controls) Average 5 μM [1]: 109.77
Percentage Inhibition Average 10 μM [1]: −20.53%
Screening data (Relative infection to DMSO controls) Average 10 μM [1]: 120.53
Percentage Inhibition Average 25 μM [1]: 24.68%
Screening data (Relative infection to DMSO controls) Average 25 μM [1]: 75.32
Percentage Inhibition Average 50 μM [1]: 39.69%
Screening data (Relative infection to DMSO controls) Average 50 μM [1]: 60.31
Average (relative infection to DMSO over the 5 tested concentrations) [1]: 87.43
Infection Data, Average, Mean ([1]; average of Exp 1-3 (SMW475, SMW477, SMW478), n 9, 1 uM): 71.22%
Infection Data, Average, Mean ([1]; average of Exp 1-3 (SMW475, SMW477, SMW478), n 9, 5 uM): 109.77%
Infection Data, Average, Mean ([1]; average of Exp 1-3 (SMW475, SMW477, SMW478), n 9, 10 uM): 120.53%
Infection Data, Average, Mean ([1]; average of Exp 1-3 (SMW475, SMW477, SMW478), n 9, 25 uM): 75.32%
Infection Data, Average, Mean ([1]; average of Exp 1-3 (SMW475, SMW477, SMW478), n 9, 50 uM): 60.31%
Relative cell count to DMSO controls, Average 1 μM [2]: 118.72
Relative cell count to DMSO controls, Average 5 μM [2]: 94.18
Relative cell count to DMSO controls, Average 10 μM [2]: 80.17
Relative cell count to DMSO controls, Average 25 μM [2]: 85.8
Relative cell count to DMSO controls, Average 50 μM [2]: 59.2
Toxicity Data, Average, Mean ([2]; n 9, 1 uM): 118.72%
Toxicity Data, Average, Mean ([2]; n 9, 5 uM): 94.18%
Toxicity Data, Average, Mean ([2]; n 9, 10 uM): 80.17%
Toxicity Data, Average, Mean ([2]; n 9, 25 uM): 85.80%
Toxicity Data, Average, Mean ([2]; n 9, 50 uM): 59.20%
Relative cell count to DMSO controls, Average (for correlation analysis) [2]: 87.61
